Values of other authors in patent US6872734B2, “Use of tiagabine for treatment of diabetic neuropathy and migraine” (Abbott Laboratories, priority 2000, dated 2005).

Test system: GABA uptake
Settings: for inhibition of GABA uptake: according to J. Pharm. Exp. Therap., 228 (1984), 109

| SMILES | inhibition of GABA uptake | GABA uptake inhibitory properties (acid and salts thereof, cf. U.S. Pat. No. 5,010,090) |
| --- | --- | --- |
| O=C(O)C1CCCN(CCC=C(c2ccccc2)c2ccccc2)C1 (stereo not shown) [SK&F 89976A, N-(4,4-diphenyl-3 butenyl)nipecotic acid] | active inhibitors of GABA uptake | – |
| O=C(O)C1CCCN(CCC=C(c2ccccc2)c2cccs2)C1 (stereo not shown) [SK&F 100604J, N-(4-phenyl-4-(2-thienyl)-3-butenyl)nipecotic acid] | active inhibitors of GABA uptake | – |
| Cc1ccsc1C(=CCCN1CCC[C@@H](C(=O)O)C1)c1sccc1C [(R)-N-[4,4-Bis(3-methyl-2-thienyl)-3-butenyl]nipecotic acid] | – | effective GABA uptake inhibitory compounds |
| O=C(O)C1=CCCN(CCC=C(c2ccccc2)c2ccccc2)C1 [SK&F 100330A, N-(4,4-diphenyl-3-butenyl)guvacine] | active inhibitors of GABA uptake | – |
